For this test, the target named is recombinant human PDE-10 enzyme (human PDE-10A) (Homo sapiens (Human), UniProt Q9Y233). The test can be described thus: human PDE-10 inhibition assay (Molecular Devices IMAP PDE Fluorescence Polarization, enzyme assay IC50). As to conditions: Fluorescein-labeled cAMP/cGMP substrate, 40-minute incubation at 37° C. The class given is biochemical. On the procedure: In one embodiment, the compounds provided herein were assayed for their ability to inhibit human PDE-10A. In one embodiment, the activities of the compounds were determined using the Molecular Devices IMAP PDE Fluorescence Polarization assay using recombinant human PDE-10 enzyme expressed in a baculoviral system. Briefly, 10 μL of a compound (0.2 nM-20 μM) was added to either a 96-well half area black plate or a 384-well black plate along with 10 μL of Fluorescein-labeled cAMP/cGMP substrate as per manufacturer's instructions and 10 μL of PDE enzyme (activity 0.1 U). Following a 40-minute incubation at 37° C., 60 μL of IMAP binding reagent was added. The plate was then read on a Perkin Elmer Victor (480-535 nm). The data was analyzed using Prism Software (GraphPad Inc, San Diego, Calif.).
Sequence of recombinant human PDE-10 enzyme (human PDE-10A) (Q9Y233 whole entry): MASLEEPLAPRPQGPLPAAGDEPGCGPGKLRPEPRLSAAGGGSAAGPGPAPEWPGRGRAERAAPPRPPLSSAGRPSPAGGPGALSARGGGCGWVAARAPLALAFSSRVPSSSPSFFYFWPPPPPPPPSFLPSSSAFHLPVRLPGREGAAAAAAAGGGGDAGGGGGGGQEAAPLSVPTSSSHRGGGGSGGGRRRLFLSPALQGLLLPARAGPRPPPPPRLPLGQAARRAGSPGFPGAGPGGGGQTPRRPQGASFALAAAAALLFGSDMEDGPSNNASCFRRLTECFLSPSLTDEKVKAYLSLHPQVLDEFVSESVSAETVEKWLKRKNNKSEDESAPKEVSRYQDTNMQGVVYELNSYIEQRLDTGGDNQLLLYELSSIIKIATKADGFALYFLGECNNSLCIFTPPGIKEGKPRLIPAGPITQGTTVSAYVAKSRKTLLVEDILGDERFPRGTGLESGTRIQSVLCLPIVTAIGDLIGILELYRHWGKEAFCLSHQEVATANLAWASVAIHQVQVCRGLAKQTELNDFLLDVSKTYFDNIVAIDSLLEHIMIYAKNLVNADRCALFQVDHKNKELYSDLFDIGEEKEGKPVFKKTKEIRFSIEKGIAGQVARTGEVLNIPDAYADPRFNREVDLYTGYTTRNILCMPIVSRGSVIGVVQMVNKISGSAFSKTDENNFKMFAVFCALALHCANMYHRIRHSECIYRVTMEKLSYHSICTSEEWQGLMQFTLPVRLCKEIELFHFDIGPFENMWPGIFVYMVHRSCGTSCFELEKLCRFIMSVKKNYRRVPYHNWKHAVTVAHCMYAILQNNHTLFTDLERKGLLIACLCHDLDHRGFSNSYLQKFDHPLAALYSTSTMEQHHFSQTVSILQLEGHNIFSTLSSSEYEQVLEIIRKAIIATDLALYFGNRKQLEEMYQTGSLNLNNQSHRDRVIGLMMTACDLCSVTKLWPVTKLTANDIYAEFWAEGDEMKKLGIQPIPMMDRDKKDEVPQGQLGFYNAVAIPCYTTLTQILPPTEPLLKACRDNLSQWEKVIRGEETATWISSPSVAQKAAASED

We go through 12 compounds from patent publication US9994590B2, “Substituted [1,2,4]triazolo[1,5-a]pyrazines as phosphodiesterase inhibitors” (Sunovion Pharamaceuticals Inc., priority 2012, dated 2018).

One may read the IC50 as the concentration that gives 50% inhibition.

Where only a bound is given, the exact number is not on record here.

As to `Cc1ncc(C)n2nc(C3CC3c3nc4c5cccc(F)c5ccn4c3C)nc12` (racemic) [Compound 30, (±)-2-(2-(5,8-dimethyl-[1,2,4]triazolo[1,5-a]pyrazin-2-yl)cyclopropyl)-7-fluoro-3-methylimidazo[2,1-a]isoquinoline], the IC50 lay within 10 to 100 nM.
Turning to `Cc1ncc(C)n2nc(C3CC3c3nc4c(OC(F)F)cccn4c3C)nc12` (racemic) [Compound 31, (±)-2-(2-(8-(difluoromethoxy)-3-methylimidazo[1,2-a]pyridin-2-yl)cyclopropyl)-5,8-dimethyl-[1,2,4]triazolo[1,5-a]pyrazine], the IC50 fell in the range of 100 to 500 nM.
Under `CCOc1cccn2c(C)c(C3CC3c3nc4c(C)ncc(C)n4n3)nc12` (racemic) [Compound 32, (±)-2-(2-(8-ethoxy-3-methylimidazo[1,2-a]pyridin-2-yl)cyclopropyl)-5,8-dimethyl-[1,2,4]triazolo[1,5-a]pyrazine] stands 10 to 100 nM; under `Cc1cc2nc(C3CC3c3nc4c(C)ncc(C)n4n3)c(C)n2cc1F` (racemic) [Compound 33, (±)-2-(2-(6-fluoro-3,7-dimethylimidazo[1,2-a]pyridin-2-yl)cyclopropyl)-5,8-dimethyl-[1,2,4]triazolo[1,5-a]pyrazine], 100 to 500 nM; under `COc1cc(F)cn2c(C)c(C3CC3c3nc4c(C)ncc(C)n4n3)nc12` (racemic) [Compound 34, (±)-2-(2-(6-fluoro-8-methoxy-3-methylimidazo[1,2-a]pyridin-2-yl)cyclopropyl)-5,8-dimethyl-[1,2,4]triazolo[1,5-a]pyrazine], 10 to 100 nM.
With `Cc1ncc(C)n2nc(C3CC3c3nc4c5c(ccn4c3C)OCCO5)nc12` (racemic) [Compound 35, (±)-9-(2-(5,8-dimethyl-[1,2,4]triazolo[1,5-a]pyrazin-2-yl)cyclopropyl)-8-methyl-2,3-dihydro-[1,4]dioxino[2,3-c]imidazo[1,2-a]pyridine] the figure was 10 to 100 nM; with `COc1cc(C)cn2c(C)c(C3CC3c3nc4c(C)ncc(C)n4n3)nc12` (racemic) [Compound 36, (±)-2-(2-(8-methoxy-3,6-dimethylimidazo[1,2-a]pyridin-2-yl)cyclopropyl)-5,8-dimethyl-[1,2,4]triazolo[1,5-a]pyrazine], 10 to 100 nM.
Under `COc1cc(OC)c2nc(C3CC3c3nc4c(C)ncc(C)n4n3)c(C)n2c1` (racemic) [Compound 37, (±)-2-(2-(6,8-dimethoxy-3-methylimidazo[1,2-a]pyridin-2-yl)cyclopropyl)-5,8-dimethyl-[1,2,4]triazolo[1,5-a]pyrazine] stands 10 to 100 nM.
For the compound `Cc1ncc(C)n2nc(C3CCC3c3cn4ccc5c(c4n3)OCCO5)nc12` (racemic) [Compound 38, (±)-9-(2-(5,8-dimethyl-[1,2,4]triazolo[1,5-a]pyrazin-2-yl)cyclobutyl)-2,3-dihydro-[1,4]dioxino[2,3-c]imidazo[1,2-a]pyridine], the IC50 was in the range of 100 to 500 nM.
`Cc1ncc(C)n2nc(C3CC3c3cn4ccc5c(c4n3)OCCO5)nc12` (racemic) [Compound 39, (±)-9-(2-(5,8-dimethyl-[1,2,4]triazolo[1,5-a]pyrazin-2-yl)cyclopropyl)-2,3-dihydro-[1,4]dioxino[2,3-c]imidazo[1,2-a]pyridine]: the IC50 was 10 to 100 nM.
Under `Cc1ncc(C)n2nc(C3CCC3c3nc4c5cccnc5ccc4n3C)nc12` (racemic) [Compound 40, (±)-2-(2-(5,8-dimethyl-[1,2,4]triazolo[1,5-a]pyrazin-2-yl)cyclobutyl)-3-methyl-3H-imidazo[4,5-f]quinoline] stands above 500 nM; under `COc1cccn2c(C)c(C3CCC3c3nc4c(C)ncc(C)n4n3)nc12` (racemic) [Compound 42, (±)-2-(2-(8-methoxy-3-methylimidazo[1,2-a]pyridin-2-yl)cyclobutyl)-5,8-dimethyl-[1,2,4]triazolo[1,5-a]pyrazine], above 500 nM.
